Data on 11 molecules can be found in US20190308988A1, “OPIOID RECEPTOR ANTAGONIST PRODRUGS” (Nirsum Laboratories, Inc., priority 2017, published 2019).

In brackets after ≈: the same amount, converted by molar mass. A value given as a limit tells only on which side of the number the result lay.

The nature of series [1]: Solubility determination in oil (Table 10). To be noted: for solubility at 24 h: 25 °C, Obs. Temp. 25 °C; for solubility at 24 h / solubility / solubility thermodynamic: thermodynamic from solid; for solubility / solubility thermodynamic: 40 °C; for solubility thermodynamic: water, Equilibrium solubility: Water. The protocol: A known amount of test substance (˜40 mg) was weighed into the vial, 100 μL of oil was added and heated to 60° C. and then system was slurried to reach equilibrium. […] Extra oil was added into the vial once compound precipitated out and then the system was re-equilibrated at 1000 rpm at room temperature (25° C.). Final concentration was determined by HPLC method as described below in Table 6a and 6b.

The nature of series [2]: Polymorph screening of solid state drug substances (Table 23). The series is classed as physicochemical. Particulars: stirred 50 °C 72 hours; for Dry method and appearance: dried solid.
The mark [3] stands for this setting: oil or lipid, Approximate Solubility in Excipient: Cottonseed oil, Heating Temp. 60 °C.
[4] abbreviates: oil or lipid, Approximate Solubility in Excipient: Sesame oil, Heating Temp. 60 °C.
The mark [5] stands for this setting: oil or lipid, Approximate Solubility in Excipient: Cottonseed oil, Heating Temp. 40 °C, Obs. Temp. 40 °C.
[6] abbreviates: oil or lipid, Approximate Solubility in Excipient: Sesame oil, Heating Temp. 40 °C, Obs. Temp. 40 °C.
Setting [7] is: organic solvent or mixture, Approximate Solubility in Excipient: Ethanol, Heating Temp. 40 °C, Obs. Temp. 40 °C.
Setting [8] is: Heating Temp. 40 °C, Obs. Temp. 40 °C.
Setting [9] is: oil or lipid, Approximate Solubility in Excipient: Cottonseed oil, Heating Temp. 60 °C, Obs. Temp. 40 °C.
The mark [10] stands for this setting: oil or lipid, Approximate Solubility in Excipient: Sesame oil, Heating Temp. 60 °C, Obs. Temp. 40 °C.

In general, solubility refers to the dissolved amount per volume that the medium holds. The term solubility (thermodynamic) denotes the concentration in solution at equilibrium with solid. As to `C=C1CC[C@@]2(O)C3Cc4ccc(OC(=O)CCCCCCC/C=C\CCCCCCCC)c5c4[C@@]2(CCN3CC2CC2)[C@H]1O5` [Compound 36, (4aS,7aS,12bS)-3-(cyclopropylmethyl)-4a-hydroxy-7-methylene-2,3,4,4a,5,6,7,7a-octahydro-1H-4,12-methanobenzofuro[3,2-e]isoquinolin-9-yl oleate], the solubility at 24 h is > 407 mg/mL in series [1] (setting [3]) and > 408 mg/mL in series [1] (setting [4]). The solubility in series [1] (oil or lipid, Approximate Solubility in Excipient: Castor oil, Heating Temp. 40 °C, Obs. Temp. 40 °C) is > 217 mg/mL; in series [1] (setting [5]), > 419 mg/mL; in series [1] (setting [6]), > 412 mg/mL; in series [1] (setting [7]), 20 to 30 mg/mL (≈ 33.1 to 49.7 mM). In series [1] (setting [8]), this molecule displayed a solubility (thermodynamic) of 0.005 mg/mL (≈ 0.00828 mM).

For the molecule `O=C(CCC1CCCC1)Oc1ccc2c3c1O[C@H]1C(=O)CC[C@@]4(O)C(C2)N(CC2CC2)CC[C@]314` [Compound 43, (4aS,7aR,12bS)-3-(cyclopropylmethyl)-4a-hydroxy-7-oxo-2,3,4,4a,5,6,7,7a-octahydro-1H-4,12-methanobenzofuro[3,2-e]isoquinolin-9-yl 3-cyclopentylpropanoate], the solubility is < 50 mg/mL in series [1] (setting [5]); 140 to 210 mg/mL (≈ 301 to 451 mM) in series [1] (setting [9]); < 50 mg/mL in series [1] (setting [6]); 133 to 199 mg/mL (≈ 286 to 427 mM) in series [1] (setting [10]); > 257 mg/mL in series [1] (setting [7]). This molecule also returned a solubility (thermodynamic) in series [1] (setting [8]) of 0.05 mg/mL (≈ 0.107 mM). For the same molecule, in series [1] (setting [8]), the “Equilibrium solubility: Water” value is given as 0.048 mg/mL.

On to `CCCCCCCCCCCCCCCCCC(=O)Oc1ccc2c3c1O[C@H]1C(=O)CC[C@@]4(O)C(C2)N(CC2CC2)CC[C@]314` [Compound 54, (4aS,7aR,12bS)-3-(cyclopropylmethyl)-4a-hydroxy-7-oxo-2,3,4,4a,5,6,7,7a-octahydro-1H-4,12-methanobenzofuro[3,2-e]isoquinolin-9-yl stearate], for which the results for the solubility at 24 h in series [1] (setting [3]) and in series [1] (setting [4]) were < 51 mg/mL and < 50 mg/mL, respectively. Further, the thermodynamic solubility in series [1] (setting [8]) was < 0.001 mg/mL.

Take `CCCCCCCCCCCC(=O)OCOc1ccc2c3c1O[C@H]1C(=O)CC[C@@]4(O)C(C2)N(CC2CC2)CC[C@]314` [Compound 48, (((4aS,7aR,12bS)-3-(cyclopropylmethyl)-4a-hydroxy-7-oxo-2,3,4,4a,5,6,7,7a-octahydro-1H-4,12-methanobenzofuro[3,2-e]isoquinolin-9-yl)oxy)methyl dodecanoate]: the solubility at 24 h is > 410 mg/mL in series [1] (setting [3]) and > 405 mg/mL in series [1] (setting [4]). In addition, the solubility (thermodynamic) in series [1] (setting [8]) came to 0.003 mg/mL (≈ 0.00542 mM).

Consider `C=C1CC[C@@]2(O)C3Cc4ccc(OC(=O)OCCCCCCCCCCCCCCCCCCCC)c5c4[C@@]2(CCN3CC2CC2)[C@H]1O5` [Compound 28, (4aS,7aS,12bS)-3-(cyclopropylmethyl)-4a-hydroxy-7-methylene-2,3,4,4a,5,6,7,7a-octahydro-1H-4,12-methanobenzofuro[3,2-e]isoquinolin-9-yl icosyl carbonate], for which the values for the solubility at 24 h in series [1] (setting [3]) and in series [1] (setting [4]) were < 50.2 mg/mL and < 50.6 mg/mL, respectively. Besides, the thermodynamic solubility in series [1] (setting [8]) was < 0.001 mg/mL.

Consider `CCCCCCCCCCCCCC(=O)Oc1ccc2c3c1O[C@H]1C(=O)CC[C@@]4(O)C(C2)N(CC2CC2)CC[C@]314` [Compound 57, (4aS,7aR,12bS)-3-(cyclopropylmethyl)-4a-hydroxy-7-oxo-2,3,4,4a,5,6,7,7a-octahydro-1H-4,12-methanobenzofuro[3,2-e]isoquinolin-9-yl tetradecanoate], for which the figures for the solubility at 24 h in series [1] (setting [3]) and in series [1] (setting [4]) were > 424 mg/mL and > 417 mg/mL, respectively. Besides, the solubility (thermodynamic) in series [1] (setting [8]) was < 0.001 mg/mL.

Regarding `C=C1CC[C@@]2(O)C3Cc4ccc(OC(=O)OCCCCCCCC)c5c4[C@@]2(CCN3CC2CC2)[C@H]1O5` [Compound 17, (4aS,7aS,12bS)-3-(cyclopropylmethyl)-4a-hydroxy-7-methylene-2,3,4,4a,5,6,7,7a-octahydro-1H-4,12-methanobenzofuro[3,2-e]isoquinolin-9-yl octyl carbonate], the solubility at 24 h is > 408 mg/mL in series [1] (setting [3]) and > 487 mg/mL in series [1] (setting [4]). Further, the solubility in series [1] (setting [5]) was > 416 mg/mL; in series [1] (setting [6]), > 416 mg/mL; in series [1] (setting [7]) it was > 209 mg/mL. The same molecule yielded a thermodynamic solubility in series [1] (setting [8]) of 0.0008 mg/mL (≈ 0.00161 mM).

With `CCCCCCCCCCCCCCOC(=O)OCOc1ccc2c3c1O[C@H]1C(=O)CC[C@@]4(O)C(C2)N(CC2CC2)CC[C@]314` [Compound 27, (((4aS,7aR,12bS)-3-(cyclopropylmethyl)-4a-hydroxy-7-oxo-2,3,4,4a,5,6,7,7a-octahydro-1H-4,12-methanobenzofuro[3,2-e]isoquinolin-9-yl)oxy)methyl tetradecyl carbonate], the results for the solubility at 24 h in series [1] (setting [3]) and in series [1] (setting [4]) were > 395 mg/mL and > 399 mg/mL, respectively. Besides, the solubility (thermodynamic) in series [1] (setting [8]) is < 0.001 mg/mL.

For the molecule `CCCCCCCCCCOC(=O)Oc1ccc2c3c1O[C@H]1C(=O)CC[C@@]4(O)C(C2)N(CC2CC2)CC[C@]314` [Compound 10, (4aS,7aR,12bS)-3-(cyclopropylmethyl)-4a-hydroxy-7-oxo-2,3,4,4a,5,6,7,7a-octahydro-1H-4,12-methanobenzofuro[3,2-e]isoquinolin-9-yl decyl carbonate], the “XRPD results (Dried)” value in series [2] (Acetone), in series [2] (EtOAc), in series [2] (Heptane), in series [2] (Isopropanol) and in series [2] (MTBE) was “Pattern A” each time. The “Dry method and appearance” value was “Evaporation/White wax” in series [2] (Acetone); “Evaporation/White wax” in series [2] (EtOAc); “Centrifugation/White wax” in series [2] (Heptane); “Evaporation/White wax” in series [2] (Isopropanol); “Evaporation/White wax” in series [2] (MTBE).

Consider `CC(C)(C)CC(=O)Oc1ccc2c3c1O[C@H]1C(=O)CC[C@@]4(O)C(C2)N(CC2CC2)CC[C@]314` [Compound 42, (4aS,7aR,12bS)-3-(cyclopropylmethyl)-4a-hydroxy-7-oxo-2,3,4,4a,5,6,7,7a-octahydro-1H-4,12-methanobenzofuro[3,2-e]isoquinolin-9-yl 3,3-dimethylbutanoate], for which the solubility in series [1] (setting [5]) is < 51 mg/mL; in series [1] (setting [9]) it was < 26 mg/mL; in series [1] (setting [6]), < 52 mg/mL; in series [1] (setting [10]), < 25.8 mg/mL; in series [1] (setting [7]), 78 to 93 mg/mL (≈ 177 to 212 mM). Also, the solubility (thermodynamic) in series [1] (setting [8]) stood at 0.245 mg/mL (≈ 0.557 mM); in series [1] (Heating Temp. 60 °C, Obs. Temp. 40 °C), 0.068 mg/mL (≈ 0.155 mM).

In the case of `CCCCCCCCCCCCCCCC(=O)OCOc1ccc2c3c1O[C@H]1C(=O)CC[C@@]4(O)C(C2)N(CC2CC2)CC[C@]314` [Compound 49, (((4aS,7aR,12bS)-3-(cyclopropylmethyl)-4a-hydroxy-7-oxo-2,3,4,4a,5,6,7,7a-octahydro-1H-4,12-methanobenzofuro[3,2-e]isoquinolin-9-yl)oxy)methyl hexadecanoate], the solubility at 24 h in series [1] (setting [3]) was < 50 mg/mL; in series [1] (setting [4]), < 51 mg/mL. In addition, in series [1] (setting [8]), the thermodynamic solubility turned out to be 0.028 mg/mL (≈ 0.0459 mM).
